Test results as given in patent US12668599B2, “Heterobifunctional compounds and methods of treating disease” (Halda Therapeutics OpCo, Inc., priority 2023, dated 2026).

Key:
VCaP cells = assay: Cellular growth inhibition assay for VCaP cells (CellTiter-Glo 2.0, 72 hours); assay type: cell-based, human; details: CellTiter-Glo 2.0
Method: Exemplary compounds were tested for ability to inhibit the proliferation of VCaP cells. VCap cells are a commercially available human prostate cancer cell line.
VCaP cells were purchased from American Type Cell Culture (ATCC Cat #CRL2876) and then seeded on poly-D-lysine coated, black clear-bottom 384-well plates at 5000/well in 25 μL Dulbecco's Modified Eagle Medium (DMEM) supplemented with 10% w/w Fetal bovine serum (FBS) and 1% w/w Pen-Strep. Pen-Strep is a commercially available mixture of penicillin G and streptomycin, which is used in mammalian cell culture media to prevent bacterial contamination. Dulbecco's Modified Eagle Medium (DMEM) supplemented with 10% w/w fetal bovine serum (FBS) and 1% w/w Pen-Strep is herein referred to as Treatment Medium. Following seeding of cells in the plates, the plates were spun at 300×g for 30 seconds, then equilibrated to room temperature for 30 minutes, and then deposited in a humidified tissue culture incubator maintained at 37° C. with 5% CO2.
(§1) At 24 hours after seeding of the cells, dilutions of test compound were prepared in DMSO and dissolved in Treatment Medium, to achieve a final DMSO concentration of 0.5% w/w, thereby providing the Test Compound Solution. A 25 μL aliquot of the Test Compound Solution was added to cells in the well plates. An equal volume of a solution containing DMSO and Treatment Medium was used as a negative control. Following treatment of cells with Test Compound Solution or said equal volume of a solution containing DMSO and Treatment Medium, the plates were spun at 300×g for 30 seconds, and then left in an incubator for 72 hours.
(§2) At the end of the treatment duration, cell viability was quantified with CellTiter-Glo 2.0 reagent (Promega Cat #G9243). For this purpose, plates were equilibrated to room temperature for 30 minutes, and then 25 μL of CellTiter-Glo 2.0 reagent was added to cells in the plate wells. Plates were then agitated on a shaker for two minutes at 500 rpm and subsequently incubated at room temperature for 10 minutes. Following incubation, the plates were spun at 3000×g for 30 seconds, then sealed with an optical adhesive cover, and luminescence readings were measured with an En Vision Plate Reader.
(§3) Data was normalized using zero luminescence for baseline. A four-parameter non-linear regression curve fit was applied to dose-response data in GraphPad Prism data analysis software to determine the half-maximal growth inhibitory concentration (GI50) for each test compound.

[1] = test system: T-Rex 293 cell line SC3 cells having increased expression of androgen receptor protein due to exposure to doxycycline; assay: Cellular growth inhibition, T-Rex 293 SC3 cells with doxycycline-induced androgen receptor (CellTiter-Glo 2.0, 72 hours); assay type: cell-based; details: T-Rex 293 SC3 cells with 10 ng/ml doxycycline (increased androgen receptor expression), 72 hours, CellTiter-Glo 2.0
Method: (§4) Ability of the test compounds to inhibit proliferation of the foregoing cell types was evaluated according to the procedures set forth below.
(§5) The doxycycline-inducible androgen receptor protein expressing cell line was established using the following protocol: T-Rex 293 cells were purchased from Invitrogen (Cat #R71007) and transfected using Lipofectamine 2000 with the wild-type androgen receptor protein sequence cloned into the pcDNA4/TO vector. Transfected cells were selected using 400 μg/mL Zeocin (Invitrogen Cat #R25001). Following selection, single clones were raised and maintained in Dulbecco's Modified Eagle Medium (DMEM) supplemented with 10% w/w Tetracycline-free fetal bovine serum (FBS) and 250 μg/mL Zeocin. Clones were analyzed for expression of androgen receptor protein in the presence and absence of 10 ng/ml doxycycline (Sigma Cat #D9891), and a single doxycycline-inducible clone (hereinafter “SC3”) was selected for use in downstream assays.
(§6) The SC3 cells were seeded on poly-D-lysine coated, black clear-bottom 384-well plates at 2500/well, in 25 μL Phenol Red Free Dulbecco's Modified Eagle Medium (DMEM) supplemented with 10% w/w charcoal-dextran treated fetal bovine serum (FBS) and 1% w/w pen-strep, with or without 10 ng/ml doxycycline. Pen-Strep is a commercially available mixture of penicillin G and streptomycin, which is used in mammalian cell culture media to prevent bacterial contamination. Phenol Red Free Dulbecco's Modified Eagle Medium (DMEM) supplemented with 10% w/w charcoal-dextran treated fetal bovine serum (FBS) and 1% w/w pen-strep, with or without 10 ng/mL doxycycline is herein referred to as Treatment Medium. Following seeding of cells in the plates, the plates were spun at 300×g for 30 seconds, then equilibrated to room temperature for 30 minutes, and then deposited in a humidified tissue culture incubator maintained at 37° C. with 5% CO2.
as §1, §2, §3

[2] = test system: T-Rex 293 cell line SC3 cells lacking increased expression of androgen receptor protein; assay: Cellular growth inhibition, T-Rex 293 SC3 cells without doxycycline (CellTiter-Glo 2.0, 72 hours); assay type: cell-based; details: T-Rex 293 SC3 cells not exposed to doxycycline (no increased androgen receptor expression)
Method: as §4, §5, §6, §1, §2, §3

SMILES | GI50 (VCaP cells; 72 hours) | GI50 (VCaP cells; Homo sapiens, VCaP, 72 h) | GI50 [1] | GI50 [2] | GI50 ([2]; 72 h)
COc1cc(O[C@H]2CC[C@H](NC(=O)c3ccc(N4CCC5(CCC(c6ccc(C7=N[C@@H](C)c8nnc(C)n8-c8sc(C)c(C)c87)cc6)CC5)C4)nn3)CC2)ccc1C#N (stereo partly drawn) [Compound I-20] | < 500 nM |  | < 500 nM | < 500 nM | 
CC[C@@H]1N=C(c2ccc(C3CCC4(CC3)CCN(c3ccc(C(=O)NC5CCC(Oc6ccc(C#N)c(OC)c6)CC5)nn3)C4)cc2)c2c(sc(C)c2C)-n2c(C)nnc21 (stereo partly drawn) [Compound I-41, N-((1r,4r)-4-(4-cyano-3-methoxyphenoxy)cyclohexyl)-6-(8-(4-((S)-6-ethyl-2,3,9-trimethyl-6H-thieno[3,2-f][1,2,4]triazolo[4,3-a][1,4]diazepin-4-yl)phenyl)-2-azaspiro[4.5]decan-2-yl) pyridazine-3-carboxamide] | < 500 nM |  | < 500 nM | < 500 nM | 
COc1cc(O[C@H]2CC[C@H](NC(=O)c3ccc(N4CCC5(CCN(c6ccc(C7=N[C@@H](C)c8nnc(C)n8-c8sc(C)c(C)c87)c(F)c6)CC5)C4)nn3)CC2)ccc1C#N [Compound I-45, N-[4-(4-cyano-3-methoxy-phenoxy)cyclohexyl]-6-[8-[3-fluoro-4-[(9S)-4,5,9,13-tetramethyl-3-thia-1,8,11,12-tetrazatricyclo[8.3.0.0^2,6]trideca-2 (6),4,7,10,12-pentaen-7-yl]phenyl]-2,8-diazaspiro[4.5]decan-2-yl]pyridazine-3-carboxamide] |  | < 500 nM | < 500 nM |  | < 500 nM
COc1cc(O[C@H]2CC[C@H](NC(=O)c3ccc(N4CCC5(CCC(Oc6ccc(C7=N[C@@H](C)c8nnc(C)n8-c8sc(C)c(C)c87)cc6)C5)C4)nn3)CC2)ccc1C#N (stereo partly drawn) [Compound I-51] | < 500 nM |  | < 500 nM | < 500 nM | 
COc1cc(O[C@H]2CC[C@H](NC(=O)c3ccc(N4CCC5(CCN(c6ccc(C7=N[C@@H](C)c8nnc(C)n8-c8sc(C)c(C)c87)cc6C)CC5)C4)nn3)CC2)ccc1C#N [Compound I-46, N-[4-(4-cyano-3-methoxy-phenoxy)cyclohexyl]-6-[8-[2-methyl-4-[(9S)-4,5,9,13-tetramethyl-3-thia-1,8,11,12-tetrazatricyclo[8.3.0.0^2,6]trideca-2 (6),4,7,10,12-pentaen-7-yl]phenyl]-2,8-diazaspiro[4.5]decan-2-yl]pyridazine-3-carboxamide] |  | < 500 nM | < 500 nM |  | < 500 nM
Cc1sc2c(c1C)C(c1ccc(OC3CC4(CCN(c5ccc(C(=O)NC6CCC(Oc7ccc(C#N)c(OC(F)(F)F)c7)CC6)nn5)CC4)C3)cc1)=N[C@@H](Cc1ncco1)c1nnc(C)n1-2 (stereo partly drawn) [Compound I-16, N-[4-[4-cyano-3-(trifluoromethoxy)phenoxy]cyclohexyl]-6-[2-[4-[(9S)-4,5,13-trimethyl-9-(oxazol-2-ylmethyl)-3-thia-1,8,11,12-tetrazatricyclo[8.3.0.0^2,6]trideca-2 (6),4,7,10,12-pentaen-7-yl]phenoxy]-7-azaspiro[3.5]nonan-7-yl]pyridazine-3-carboxamide] |  | < 500 nM | < 500 nM |  | < 500 nM
COCC[C@@H]1N=C(c2ccc(C3CCC4(CC3)CCN(c3ccc(C(=O)NC5CCC(Oc6ccc(C#N)c(OC(F)(F)F)c6)CC5)nn3)C4)cc2)c2c(sc(C)c2C)-n2c(C)nnc21 (stereo partly drawn) [Compound I-4, N-[4-[4-cyano-3-(trifluoromethoxy)phenoxy]cyclohexyl]-6-[8-[4-[(9S)-9-(2-methoxyethyl)-4,5,13-trimethyl-3-thia-1,8,11,12-tetrazatricyclo[8.3.0.0^2,6]trideca-2 (6),4,7,10,12-pentaen-7-yl]phenyl]-2-azaspiro[4.5]decan-2-yl]pyridazine-3-carboxamide] |  | < 500 nM | < 500 nM |  | 1500 to 3000 nM

More lines, main results first:

GI50 (VCaP cells; 72 hours) | GI50 (VCaP cells; Homo sapiens, VCaP, 72 h) | SMILES | GI50 [1] | GI50 [2] | GI50 ([2]; 72 h)
< 500 nM |  | COc1cc(O[C@H]2CC[C@H](NC(=O)c3ccc(N4CCC5(CCC(c6ccc(C7=N[C@@H](C)c8nnc(C)n8-c8sc(C)c(C)c87)cc6)C5)C4)nn3)CC2)ccc1C#N (stereo partly drawn) [Compound I-97] | < 500 nM | < 500 nM | 
< 500 nM |  | COc1cc(O[C@H]2CC[C@H](NC(=O)c3ccc(N4CCC5(CCC(c6ccc(C7=N[C@@H](C)c8nnc(C)n8-c8sc(C)c(C)c87)cc6OC)CC5)C4)nn3)CC2)ccc1C#N (stereo partly drawn) [Compound I-67] | < 500 nM | < 500 nM | 
 | < 500 nM | COc1cc(O[C@H]2C(C)(C)[C@H](NC(=O)c3cnc(N4CCC5(CC4)CC(Cc4ccc(C6=N[C@@H](Cc7ncco7)c7nnc(C)n7-c7sc(C)c(C)c76)c(F)c4)C5)nc3)C2(C)C)ccc1C#N [II-13] | < 500 nM |  | < 500 nM
 | < 500 nM | COc1cc(O[C@H]2CC[C@H](NC(=O)c3ccc(N4CCC5(CC4)CC(Oc4ccc(C6=N[C@@H](Cc7ncco7)c7nnc(C)n7-c7sc(C)c(C)c76)c(F)c4)C5)nn3)CC2)ccc1C#N [Compound I-128, N-[4-(4-cyano-3-methoxy-phenoxy)cyclohexyl]-6-[2-[3-fluoro-4-[(9S)-4,5,13-trimethyl-9-(oxazol-2-ylmethyl)-3-thia-1,8,11,12-tetrazatricyclo[8.3.0.0^2,6]trideca-2 (6),4,7,10,12-pentaen-7-yl]phenoxy]-7-azaspiro[3.5]nonan-7-yl]pyridazine-3-carboxamide] | < 500 nM |  | < 500 nM
500 to 1500 nM |  | COc1cc(O[C@H]2CC[C@H](NC(=O)c3ccc(N4CCC5(CCC(c6ccc(C7=N[C@@H](C)c8nnc(C)n8-c8sc(C)c(C)c87)nc6)CC5)C4)nn3)CC2)ccc1C#N (stereo partly drawn) [Compound I-89] | < 500 nM | < 500 nM | 
< 500 nM |  | COc1cc(O[C@H]2CC[C@H](NC(=O)c3ccc(N4CC5(CC(C#Cc6ccc(C7=NC(Cc8ncco8)c8nnc(C)n8-c8sc(C)c(C)c87)cc6F)C5)C4)nn3)CC2)ccc1C#N (single isomer, unassigned) [Compound I-127] | < 500 nM | < 500 nM | 
< 500 nM |  | COc1cc(O[C@H]2CC[C@H](NC(=O)c3ccc(N4CCC5(CCN(c6ccc(C7=NC(Cc8ncco8)c8nnc(C)n8-c8sc(C)c(C)c87)cc6F)CC5)C4)nn3)CC2)ccc1C#N (single isomer, unassigned) [Compound I-135] | < 500 nM | < 500 nM | 
> 3000 nM |  | COc1cc(O[C@H]2CC[C@H](NC(=O)c3ccc(N4CCC5(CCN(c6ccc(C7=NC(Cc8ncco8)c8nnc(C)n8-c8sc(C)c(C)c87)cc6F)CC5)C4)nn3)CC2)ccc1C#N (single isomer, unassigned) [Compound I-134] | < 500 nM | > 3000 nM | 
 | < 500 nM | COc1cc(O[C@H]2CC[C@H](NC(=O)c3ccc(N4CCC5(CCC(c6ccc(C7=N[C@@H](C)c8nnc(C)n8-c8sc(C)c(C)c87)c(C)c6)CC5)C4)nn3)CC2)ccc1C#N (stereo partly drawn) [Compound I-63] | < 500 nM |  | < 500 nM
